Measured values from patent publication US20050118226A1, “Methods for treating ACAT-related diseases” (priority 2003, published 2005).

Tested on: ACAT
Assay: Cholesterol determinations in hAPP mice treated two months with CP-113,818 pellets
Assay type: in vivo, mouse
Details: 7.2 mg/kg/day, 57 days
Description: hAPP transgenic mice overexpress human APP751 with the London (V717I) and Swedish (K670M/N671L) mutations under the regulatory control of the neuron specific murine (m)Thy-1 promoter (mThy-1-hAPP751; heterozygous with respect to the transgene, on a C57BL/6 F3 background) (Rockenstein et al., 2001). The hAPP colony was sustained by crossing transgenic APP751 with C57BL/6 (Harlan Winkelman, Germany). Corresponding littermates were used for control studies. All mice were housed according to standard animal care protocols, fed ad libitum with standard chow diet, and maintained in a pathogen-free environment in single ventilated cages at JSW Research. The transgenic status of each animal was confirmed by real time PCR of tail snips using specific primers and the appropriate hybridization probe. A modified Irvine test was regularly performed prior to the experiment to assess the neurological status of the animals; those showing disturbances were excluded from the experiments. Mice were then randomly assigned to different treatment groups and individually coded. Investigators performing behavioral testing, biochemical analyzes and histomorphological evaluations of the brains were blinded in terms of group allocation of the mice. […]
Animals were sacrificed the day after the last MWM training, on day 57 of treatment. […] Hematoxylin and eosin stained 6-8 um sections were analyzed for evidence of CP-113,818 toxicity.
Tissues were homogenized in the presence of trypsin (10 mg/ml) in a Dounce homogenizer on ice. Protein concentration of the homogenate was determined using the BCA protein assay kit (Pierce). […] Dried lipid pellets were dissolved in water and total amount of cholesterol was determined with an enzymatic assay (Sigma; cat. no. 402-20). As control, free cholesterol was determined with a different enzymatic assay (R-Biopharm GmbH, Darmstadt, Germany; cat. no. E0139050). The amount of cholesteryl-esters was calculated by subtracting free from total cholesterol. […]

CCCCCCCC[C@H](SCCCCCC)C(=O)Nc1c(SC)cc(C)nc1SC [CP-113,818]
decrease of liver cholesterol: 34% | decrease of liver cholesteryl-esters: 87% | decrease of serum cholesterol: 35%
